Experimental data: ChEMBL document CHEMBL1156096, “Synthesis and antitubercular activity of 7-chloro-4-quinolinylhydrazones derivatives” (Bioorg Med Chem Lett, 2009)
Values after ≈ are worked out from the molar mass of the structure shown.

Tests used:
[1] = system: Mycobacterium tuberculosis; experiment: Antimycobacterial activity against Mycobacterium tuberculosis H37Rv ATCC 27294 by microplate alamar blue assay; format: functional
[2] = Cytotoxicity against mouse J774 cells assessed as cell viability at 1 ug/ml by MTT assay; format: cell-based; conditions: read-out: Activity
[3] = Cytotoxicity against mouse J774 cells infected with Mycobacterium bovis BCG assessed as cell viability at 1 ug/ml by MTT assay; format: cell-based; conditions: read-out: Activity
[4] = Cytotoxicity against mouse J774 cells assessed as cell viability at 10 ug/ml by MTT assay; format: cell-based; conditions: read-out: Activity
[5] = Cytotoxicity against mouse J774 cells assessed as cell viability at 100 ug/ml by MTT assay; format: cell-based; conditions: read-out: Activity
[6] = Cytotoxicity against mouse J774 cells infected with Mycobacterium bovis BCG assessed as cell viability at 10 ug/ml by MTT assay; format: cell-based; conditions: read-out: Activity
[7] = Cytotoxicity against mouse J774 cells infected with Mycobacterium bovis BCG assessed as cell viability at 100 ug/ml by MTT assay; format: cell-based; conditions: read-out: Activity

Row | Structure (SMILES) | MIC [1] [µg/mL] | also measured
1 | O=[N+]([O-])c1ccccc1/C=N/Nc1ccnc2cc(Cl)ccc12 | > 100 | –
2 | Clc1ccc2c(N/N=C/c3ccccc3Br)ccnc2c1 | > 100 | –
3 | Clc1ccc2c(N/N=C/c3ccc(Br)cc3)ccnc2c1 | 2.5 (≈ 6.93 µM) | viability at 1 ug/ml [2]: 100%; viability at 1 ug/ml [3]: 100%; viability at 10 ug/ml [4]: 100%; viability at 100 ug/ml [5]: 91%; viability at 10 ug/ml [6]: 100%; viability at 100 ug/ml [7]: 85%
4 | N#Cc1ccc(/C=N/Nc2ccnc3cc(Cl)ccc23)cc1 | > 100 | –
5 | O=[N+]([O-])c1cccc(/C=N/Nc2ccnc3cc(Cl)ccc23)c1 | > 100 | –
6 | O=[N+]([O-])c1ccc(/C=N/Nc2ccnc3cc(Cl)ccc23)cc1 | > 100 | –
7 | Fc1cccc(/C=N/Nc2ccnc3cc(Cl)ccc23)c1 | > 100 | –
8 | Clc1ccc2c(N/N=C/c3cccc(Br)c3)ccnc2c1 | 3.12 (≈ 8.65 µM) | viability at 1 ug/ml [2]: 88%; viability at 10 ug/ml [4]: 60%; viability at 100 ug/ml [5]: 3%
9 | Clc1ccc2c(N/N=C/c3ccccc3)ccnc2c1 | > 100 | –
10 | Oc1cccc(/C=N/Nc2ccnc3cc(Cl)ccc23)c1 | > 100 | –
11 | CC[C@@H](CO)NCCN[C@@H](CC)CO [ETHAMBUTOL] | 3.25 (≈ 15.9 µM) | viability at 1 ug/ml [2]: 100%
